Measurements taken from patent US20050137806A1 (priority 2003, published 2005).
Where a name gives a salt, the structure may show the parent alone.

Test system: a cell line
Assay type: cell-based
Settings: for mitotic index as a function of drug concentration (dose response path): FIG. 2A, drugs in aqueous DMSO, multiple concentrations, fraction of cells in mitosis
Experimental: As shown, four different drugs were tested against a cell line at multiple concentrations. Taxol, one of the drugs, was tested twice. For each drug at each concentration various images were taken to extract various cellular features by image analysis. In some cases, basic extracted features are analyzed using appropriate classification algorithm to provide higher-level biological classifications such as mitotic state. In FIG. 2A, the feature is “mitotic index” (a numerical classification of the cells an image on basis of the fraction of them in mitosis) shown as the dependent variable with respect to concentration in a two-dimensional plot.
All drugs were provided in an aqueous solution of dimethyl sulfoxide (DMSO). As a negative control, the cells were exposed to aqueous DMSO without any drug present. Normally, an aqueous DMSO solution is used as the solvent for delivering drugs to samples. The feature values extracted for cells exposed to the DMSO control are shown as signatures 207.
Another approach replaces the concentration variable (generally a level of stimulus variable) with another variable that can depict a trajectory but is relatively independent of potency. In other words, the chosen feature space is independent (or largely independent) of dose (concentration). […] This new variable is a measure of the number of cells that survived the treatment. Because the variable changes only when the drug begins taking effect (regardless of absolute concentration), it effectively puts all curves on the same potency scale. Using this plot, one can more rigorously classify Taxol and Cytochalasin A as having the same mechanism of action (based on mitotic index as the dependent variable).

Compound | mitotic index as a function of drug concentration (dose response path) | mitotic index versus number of cells (response path comparison) (FIG. 2B, concentration not displayed, number of cells that survived treatment as axis)
C=C1[C@@H](C)[C@H]2[C@H](Cc3ccccc3)NC(=O)[C@]23OC(=O)/C=C/C(=O)CCC[C@@H](C)C/C=C/[C@H]3[C@@H]1O [Cytochalasin A] | S-shaped | 
CC[C@@H]1/C=C/C=C/C[C@H](C)[C@H](O)[C@](C)(O)C(=O)[C@H](C)[C@@H](O)[C@H](C)C(=O)[C@H](C)[C@@H](O)[C@H](C)/C=C/C(=O)O[C@H]2[C@@H](C)[C@@H](CC1)O[C@@]1(CC[C@@H](C)[C@@H](C[C@H](C)O)O1)[C@@H]2C [Oligomycin A] | very little impact on mitotic index until relatively high concentrations are used | 
CC(=O)O[C@H]1C(=O)[C@@]2(C)[C@H]([C@H](OC(=O)c3ccccc3)[C@]3(O)C[C@H](OC(=O)[C@H](O)[C@@H](NC(=O)c4ccccc4)c4ccccc4)C(C)=C1C3(C)C)[C@]1(OC(C)=O)CO[C@@H]1C[C@@H]2O [Taxol] | S-shaped | act similarly to the tested concentrations of Vinblastine Sulfate
CC[C@]1(O)C[C@@H]2CN(CCc3c([nH]c4ccccc34)[C@@](C(=O)OC)(c3cc4c(cc3OC)N(C)[C@H]3[C@@](O)(C(=O)OC)[C@H](OC(C)=O)[C@]5(CC)C=CCN6CC[C@]43[C@@H]65)C2)C1 [Vinblastine Sulfate] | relatively high numerical value of mitotic index at various concentrations | 
